# From patent US5344828A, “Piperazinealkanoic acid and a pharmaceutical composition comprising the same” (Hokuriku Pharmaceutical Co., Ltd., priority 1990, dated 1994)
# Assays:
# [1] = system: 48 hr homologous passive cutaneous anaphylaxis (PCA) in rat; test: Antiallergic activity (48 hr homologous passive cutaneous anaphylaxis (PCA) in rat); format: in vivo, rat (male Wistar); details: oral, 1 hr before antigen challenge, vs control group, read-out: Inhibition rate (%) of PCA
# Procedure: 2. Antiallergic activity (48 hr homologous passive cutaneous anaphylaxis (PCA) in rat)
# Male Wistar rats, 6 weeks of age, were passively sensitized by intracutaneous injection in the back of a volume of 0.1 ml of anti-DNP-As rat serum. Forty-eight hours later, the animals were administered an intravenous injection of 0.5 ml saline solution containing 1 mg of DNP-As and 5 mg of Evans blue. The animals were sacrificed 30 min after the injection and the extravasated dye was extracted with 1N KOH and acetone, neutralized with 1N H3 PO4 and the absorbance at 620 nm was determined. The test compounds were administered orally in a dose of 1 mg/Kg 1 hr before antigen challenge. The inhibitory activity of a test compound was expressed as percent inhibition of PCA as compared with the control group.
# [2] = target: T1, contractile response induced by histamine in isolated guinea-pig ileum (Cavia porcellus, UniProt P31389); test: Antihistaminic activity (Effect on the contractile response induced by histamine in isolated guinea-pig ileum); set-up: species or system guinea-pig (male Hartley); details: dissociation constant KB (M), method of Furchgott, 30 min contact with test compound, 28° C.
# T1 construct: An approximately 20 mm strip of isolated ileum was mounted vertically; from tissue; host or cells: isolated ileum strip, male Hartley guinea-pig
# Procedure: 1. Antihistaminic activity (Effect on the contractile response induced by histamine in isolated guinea-pig ileum)
# Male Hartley guinea-pigs, 5-8 weeks of age, were sacrificed and the ileum was excised. […] The contractile response was recorded on a recticorder an isotonic transducer. The concentration-contractile response curve to histamine was constructed before and after 30 min contact with test compounds.
# T1 sequence (P31389 whole entry): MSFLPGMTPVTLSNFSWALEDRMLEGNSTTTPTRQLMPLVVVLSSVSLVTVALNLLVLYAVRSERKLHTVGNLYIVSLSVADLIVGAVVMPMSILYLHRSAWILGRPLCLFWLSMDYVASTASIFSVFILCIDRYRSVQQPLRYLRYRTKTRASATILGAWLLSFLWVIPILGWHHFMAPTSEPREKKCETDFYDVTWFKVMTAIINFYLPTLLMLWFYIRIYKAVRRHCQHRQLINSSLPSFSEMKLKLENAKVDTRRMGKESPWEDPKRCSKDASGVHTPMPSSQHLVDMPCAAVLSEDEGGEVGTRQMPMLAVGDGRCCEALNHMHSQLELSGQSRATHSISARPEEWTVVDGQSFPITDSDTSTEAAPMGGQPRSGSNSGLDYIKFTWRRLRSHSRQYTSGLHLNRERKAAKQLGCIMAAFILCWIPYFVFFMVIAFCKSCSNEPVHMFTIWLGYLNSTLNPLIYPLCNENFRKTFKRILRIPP
SMILES,inhibition at 1 mg/kg [1] [%],Kb [2] [M]
"Clc1ccc2c(c1)C(N1CCNCC1)=Nc1ccccc1O2 [Amoxapine, reference compound]",50.9,–
"CN1CCN(C2=Nc3ccccc3Sc3ccc(Cl)cc32)CC1 [Clothiapine, reference compound]",–,1.35e-09
"CCOC(=O)CCN1CCN(C2=Nc3ccccc3Oc3ccc(Cl)cc32)CC1 [Example 2, Ethyl 4-(2-Chlorodibenz[b,f][1,4]oxazepin-11-yl)-1-piperazinepropionate]",–,1.2e-08
"CCOC(=O)CCCN1CCN(C2=Nc3ccccc3Oc3ccc(Cl)cc32)CC1 [Example 4, Ethyl 4-(2-Chlorodibenz[b,f][1,4]oxazepin-11-yl)-1-piperazinebutyrate]",–,4.9e-09
"CCOC(=O)CCCCN1CCN(C2=Nc3ccccc3Oc3ccc(Cl)cc32)CC1 [Example 5, Ethyl 4-(2-Chlorodibenz[b,f][1,4]oxazepin-11-yl)-1-piperazinevalerate]",–,1.05e-08
CCOC(=O)CCCCCN1CCN(C2=Nc3ccccc3Oc3ccc(Cl)cc32)CC1 [Example 6],–,3.09e-09
"O=C(O)CCN1CCN(C2=Nc3ccccc3Oc3ccc(Cl)cc32)CC1 [Example 8, 4-(2-Chlorodibenz[b,f][1,4]oxazepin-11-yl)-1-piperazinepropionic acid]",88.6,5.01e-08
"O=C(O)CCCN1CCN(C2=Nc3ccccc3Oc3ccc(Cl)cc32)CC1 [Example 9, 4-(2-Chlorodibenz[b,f][1,4]oxazepin-11-yl)-1-piperazinebutyric acid]",95.8,4.79e-08
"O=C(O)CCCCN1CCN(C2=Nc3ccccc3Oc3ccc(Cl)cc32)CC1 [Example 10, 4-(2-Chlorodibenz[b,f][1,4]oxazepin-11-yl)-1-piperazinevaleric acid]",84.1,5.5e-08
O=C(O)CCCCCN1CCN(C2=Nc3ccccc3Oc3ccc(Cl)cc32)CC1 [Example 11],86.4,–
"CCOC(=O)CCN1CCN(C2=Nc3ccccc3Sc3ccc(Cl)cc32)CC1 [Example 13, Ethyl 4-(2-Chlorodibenzo[b,f][1,4]thiazepin-11-yl)-1-piperazinepropionate]",–,5.13e-08
"CCOC(=O)CCCN1CCN(C2=Nc3ccccc3Sc3ccc(Cl)cc32)CC1 [Example 15, Ethyl 4-(2-Chlorodibenzo [b,f][1,4]thiazepin-11-yl)-1-piperazinebutyrate]",–,3.02e-08
"CCOC(=O)CCCCN1CCN(C2=Nc3ccccc3Sc3ccc(Cl)cc32)CC1 [Example 16, Ethyl 4-(2-Chlorodibenzo[b,f][1,4]thiazepin-11-yl)-1-piperazinevalerate]",–,4.68e-08
"CCOC(=O)CCCCCN1CCN(C2=Nc3ccccc3Sc3ccc(Cl)cc32)CC1 [Example 17, Ethyl 4-(2-Chlorodibenzo[b,f][1,4]thiazepin-11-yl)-1piperazinecaproate]",–,5.5e-08
"O=C(O)CCN1CCN(C2=Nc3ccccc3Sc3ccc(Cl)cc32)CC1 [Example 19, 4-(2-Chlorodibenzo[b,f][1,4]thiazepin-11-yl)-1-piperazinepropionic acid]",64.6,5.25e-08
"O=C(O)CCCN1CCN(C2=Nc3ccccc3Sc3ccc(Cl)cc32)CC1 [Example 20, 4-(2-Chlorodibenzo[b,f][1,4]thiazepin-11-yl)-1-piperazinebutyric acid]",77.7,5.75e-08
"O=C(O)CCCCN1CCN(C2=Nc3ccccc3Sc3ccc(Cl)cc32)CC1 [Example 21, 4-(2-Chlorodibenzo [b,f][1,4]thiazepin-11-yl)-1-piperazinevaleric acid]",78.5,5.89e-08
"O=C(O)CCCCCN1CCN(C2=Nc3ccccc3Sc3ccc(Cl)cc32)CC1 [Example 22, 4-(2-Chlorodibenzo[b,f][1,4]thiazepin-11-yl)-1-piperazinecaproic acid]",77.2,3.47e-08
"CCOC(=O)CCN1CCN(C2=Nc3ccccc3Cc3ccccc32)CC1 [Example 24, Ethyl 4-(11H-Dibenz[b,e]azepin-6-yl)-1-piperazinepropionate]",–,8.91e-09

SMILES,inhibition at 1 mg/kg [1] [%],Kb [2] [M]
"CCOC(=O)CN1CCN(C2=Nc3ccccc3Cc3ccccc32)CC1 [Example 25, Ethyl 4-(11H-Dibenz[b,e]azepin-6-yl)-1-piperazineacetate]",–,4.57e-08
"CCOC(=O)CCCN1CCN(C2=Nc3ccccc3Cc3ccccc32)CC1 [Example 26, Ethyl 4-(11H-Dibenz[b,e]azepin-6-yl)-1-piperazinebutyrate]",–,1.35e-08
"CCOC(=O)CCCCN1CCN(C2=Nc3ccccc3Cc3ccccc32)CC1 [Example 27, Ethyl 4-(11H-Dibenz[b,e]azepin-6-yl)-1-piperazinevalerate]",–,7.94e-09
"CCOC(=O)CCCCCN1CCN(C2=Nc3ccccc3Cc3ccccc32)CC1 [Example 28, Ethyl 4-(11H-Dibenz[b,e]azepin-6-yl)-1-piperazinecaproate]",–,1.74e-08
"O=C(O)CCN1CCN(C2=Nc3ccccc3Cc3ccccc32)CC1 [Example 30, 4-(11H-Dibenz[b,e]azepin-6-yl)-1-piperazinepropionic acid]",–,5.75e-08
"O=C(O)CCCCN1CCN(C2=Nc3ccccc3Cc3ccccc32)CC1 [Example 32, 4-(11H-Dibenz[b,e]azepin-6-yl)-1-piperazinevaleric acid]",–,5.75e-08
"O=C(O)CCCCCN1CCN(C2=Nc3ccccc3Cc3ccccc32)CC1 [Example 33, 4-(11H-Dibenz[b,e]azepin-6-yl)-1-piperazinecaproic acid]",–,2.69e-08
"CCOC(=O)CCN1CCN2c3ccccc3Cc3ccccc3C2C1 (stereo not shown) [Example 35, Ethyl 3-(1,2,3,4,10,14b-Hexahydrodibenzo[c,f]pyrazino[1,2-a]azepin-2-yl)propionate]",–,2.69e-09
"CCOC(=O)CN1CCN2c3ccccc3Cc3ccccc3C2C1 (stereo not shown) [Example 36, Ethyl 2-(1,2,3,4,10,14b-Hexahydrodibenzo[c,f]pyrazino[1,2-a]azepin-2-yl)acetate]",–,3.24e-08
"CCOC(=O)CCCN1CCN2c3ccccc3Cc3ccccc3C2C1 (stereo not shown) [Example 37, Ethyl 4-(1,2,3,4,10,14b-Hexahydrodibenzo[c,f]pyrazino[1,2-a]azepin-2-yl)butyrate]",–,2.4e-09
"CCOC(=O)CCCCN1CCN2c3ccccc3Cc3ccccc3C2C1 (stereo not shown) [Example 38, Ethyl 5-(1,2,3,4,10,14b-Hexahydrodibenzo[c,f]pyrazino[1,2-a]azepin-2-yl)valerate]",–,1.1e-08
"CCOC(=O)CCCCCN1CCN2c3ccccc3Cc3ccccc3C2C1 (stereo not shown) [Example 39, Ethyl 6-(1,2,3,4,10,14b-Hexahydrodibenzo[c,f]Pyrazino[1,2-a]azepin-2-yl)caproate]",–,1.29e-08
"O=C(O)CN1CCN2c3ccccc3Cc3ccccc3C2C1 (stereo not shown) [Example 40, 2-(1,2,3,4,10,14b-Hexahydrodibenzo[c,f]pyrazino[1,2-a]azepin-2-yl)acetic acid]",–,1.82e-08
"O=C(O)CCN1CCN2c3ccccc3Cc3ccccc3C2C1 (stereo not shown) [Example 41, 3-(1,2,3,4,10,14b-Hexahydrodibenzo[c,f]pyrazino[1,2-a]azepin-2-yl)propionicacid]",76.5,2.51e-08
"O=C(O)CCCN1CCN2c3ccccc3Cc3ccccc3C2C1 (stereo not shown) [Example 42, 4-(1,2,3,4,10,14b-Hexahydrodibenzo[c,f]pyrazino[1,2-a]azepin-2-yl)butyric acid]",65.6,3.09e-08
"O=C(O)CCCCN1CCN2c3ccccc3Cc3ccccc3C2C1 (stereo not shown) [Example 43, 5-(1,2,3,4,10,14b-Hexahydrodibenzo[c,f]pyrazino[1,2-a]azepin-2-yl)valeric acid]",73.9,4.79e-08
"O=C(O)CCCCCN1CCN2c3ccccc3Cc3ccccc3C2C1 (stereo not shown) [Example 44, 6-(1,2,3,4,10,14b-Hexahydrodibenzo[c,f]pyrazino[1,2-a]azepin-2-yl)caproic acid]",71.8,3.24e-08
"CN1CCN2c3ccccc3Cc3ccccc3C2C1 (stereo not shown) [Mianserin, reference compound]",61.4,–
"CN1CCN(C2=Nc3ccccc3Cc3ccccc32)CC1 [Perlapine, reference compound]",–,7.08e-10
